The values below are quoted from earlier work in US20040058899A1, “Use of epothilones and analogs in conjunction with ophthalmic surgery” (priority 2002, published 2004).

For the data set, the system named is tumor-implanted mice. The conditions noted are these: for toxic effects / animal deaths: comparably effective doses.

In the case of `COc1cccc2c1C(=O)c1c(O)c3c(c(O)c1C2=O)C[C@@](O)(C(=O)CO)C[C@@H]3O[C@H]1C[C@H](N)[C@H](O)[C@H](C)O1` [adriamycin], the “toxic effects / animal deaths” value was “caused some animal deaths”. Regarding `C/C1=C/C[C@@H](/C(C)=C/c2csc(C)n2)OC(=O)C[C@H](O)C(C)(C)C(=O)[C@H](C)[C@@H](O)[C@@H](C)CCC1` [deoxyepothilone B], the tumor regression entry is listed as “complete tumor regression” and the “toxic effects / animal deaths” value is given as “without any noticeable toxic effects”. As for `CC(=O)O[C@H]1C(=O)[C@@]2(C)[C@H]([C@H](OC(=O)c3ccccc3)[C@]3(O)C[C@H](OC(=O)[C@H](O)[C@@H](NC(=O)c4ccccc4)c4ccccc4)C(C)=C1C3(C)C)[C@]1(OC(C)=O)CO[C@@H]1C[C@@H]2O` [paclitaxel], the “toxic effects / animal deaths” value is recorded as “caused some animal deaths”.
